In US20110269680A1 (PANACEA BIOTEC LIMITED, priority 2008, published 2011):

Experiments:
[1] = molecular target: T1, DPP-IV (Homo sapiens, UniProt P27487); assay: DPP-IV resistant assay; type: in vitro ADME
T1 construct: purchased Sigma-Aldrich
Experimental: 20 μM of peptides of the present invention (Sequence IDs—01, 02, 03, 04, 05, 06, 11, 12 and 13) were incubated with 60 mU/2 ml of DPP-IV (Sigma-Aldrich) enzyme at room temperature (22-24° C.) in 20 mM Tris HCl buffer, pH 8.0. The aliquots were analyzed for the amount of undegraded peptide concentration at different time intervals by RP-HPLC. The peak area integration was used to determine the amount of undegraded peptide (U.S. Pat. No. 7,067,488). T1/2 of each peptide was determined from the graph plotted between peak area of undegraded peptide vs. time. The peak area of DPP-IV untreated peptide in above mentioned buffer condition of same concentration was considered as time zero. […]

[2] = system: C57/BL6 male mice; assay: OGTT and dose response effect of peptide of Seq ID No. 01; type: in vivo
Experimental: C57/BL6 male mice were fasted for 6 hrs. After 6 h of fasting, blood was drawn from a small tail clip for glucose level determination. […] Glucose was given orally at the ratio 1 mg/g body wt. per mouse 5 min after the administration of peptide. Blood glucose levels were determined at different time intervals i.e. at 0, 15, 30, 60, and 120 min during a period of 2 hours using a portable glucometer. The saline solution was used as control negative in the experiment.

[3] = system: db/db mice; assay: Anti-diabetic activity of peptide in db/db mice; type: in vivo; conditions: 25 nmol/kg daily i.p., versus saline
Experimental: Animals of two different age groups (6-8 and 10-12 weeks old db/db mice) were included in this study. 6-8 week old mice were chosen as pre-diabetic mice and 10-12 week old as the full-diabetic mice. The preventive effect of peptide of Seq. ID No. 01 on the progression of diabetes in pre-diabetic mice was examined. The effect of peptide of Seq. ID No. 01 in full-diabetic mice was also studied. […] Blood glucose levels were measured on day 0, 14, 28 and 42. Test peptide of Seq ID No. 01 was injected i.p. according to body weight and the feed was removed. Mice were not fed till 4 hrs following injection of the peptide on the day of blood sample testing. Normal chow was given after the 4 hr time point. […] Test compound/vehicle (saline solution i.e. control negative) to be administered at 0 hr.

[4] = molecular target: T2, NEP 24.11 (Homo sapiens, UniProt P08473); assay: NEP 24.11 resistant (degradation) assay; type: in vitro ADME; conditions: pH 7.4
T2 construct: purchased Calbiochem
Experimental: The aliquots were analyzed for the amount of undegraded peptide concentration at different time intervals using RP-HPLC by peak area integration. T1/2 of each peptide was determined from the graph plotted between peak area of undegraded peptide vs time.

T2 sequence (P08473 whole entry): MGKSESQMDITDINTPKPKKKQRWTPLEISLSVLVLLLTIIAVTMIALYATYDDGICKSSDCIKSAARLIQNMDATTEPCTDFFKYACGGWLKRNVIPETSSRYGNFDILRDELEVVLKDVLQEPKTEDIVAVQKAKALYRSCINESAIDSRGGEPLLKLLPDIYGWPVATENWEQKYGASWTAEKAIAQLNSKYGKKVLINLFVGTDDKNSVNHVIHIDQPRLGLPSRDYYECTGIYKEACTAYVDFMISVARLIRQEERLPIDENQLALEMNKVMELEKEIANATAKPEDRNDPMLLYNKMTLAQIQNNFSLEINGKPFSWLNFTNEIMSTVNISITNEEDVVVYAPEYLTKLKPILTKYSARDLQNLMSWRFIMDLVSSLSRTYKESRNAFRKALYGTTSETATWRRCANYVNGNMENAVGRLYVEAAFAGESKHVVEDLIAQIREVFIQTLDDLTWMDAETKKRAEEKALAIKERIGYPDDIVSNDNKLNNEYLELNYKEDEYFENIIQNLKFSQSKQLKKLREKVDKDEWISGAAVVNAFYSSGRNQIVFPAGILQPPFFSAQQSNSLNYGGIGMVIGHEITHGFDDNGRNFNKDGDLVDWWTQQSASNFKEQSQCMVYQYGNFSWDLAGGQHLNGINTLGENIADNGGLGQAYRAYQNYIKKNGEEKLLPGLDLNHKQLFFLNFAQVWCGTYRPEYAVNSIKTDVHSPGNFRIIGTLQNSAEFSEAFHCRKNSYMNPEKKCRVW
T1 sequence (P27487 whole entry, species assumed): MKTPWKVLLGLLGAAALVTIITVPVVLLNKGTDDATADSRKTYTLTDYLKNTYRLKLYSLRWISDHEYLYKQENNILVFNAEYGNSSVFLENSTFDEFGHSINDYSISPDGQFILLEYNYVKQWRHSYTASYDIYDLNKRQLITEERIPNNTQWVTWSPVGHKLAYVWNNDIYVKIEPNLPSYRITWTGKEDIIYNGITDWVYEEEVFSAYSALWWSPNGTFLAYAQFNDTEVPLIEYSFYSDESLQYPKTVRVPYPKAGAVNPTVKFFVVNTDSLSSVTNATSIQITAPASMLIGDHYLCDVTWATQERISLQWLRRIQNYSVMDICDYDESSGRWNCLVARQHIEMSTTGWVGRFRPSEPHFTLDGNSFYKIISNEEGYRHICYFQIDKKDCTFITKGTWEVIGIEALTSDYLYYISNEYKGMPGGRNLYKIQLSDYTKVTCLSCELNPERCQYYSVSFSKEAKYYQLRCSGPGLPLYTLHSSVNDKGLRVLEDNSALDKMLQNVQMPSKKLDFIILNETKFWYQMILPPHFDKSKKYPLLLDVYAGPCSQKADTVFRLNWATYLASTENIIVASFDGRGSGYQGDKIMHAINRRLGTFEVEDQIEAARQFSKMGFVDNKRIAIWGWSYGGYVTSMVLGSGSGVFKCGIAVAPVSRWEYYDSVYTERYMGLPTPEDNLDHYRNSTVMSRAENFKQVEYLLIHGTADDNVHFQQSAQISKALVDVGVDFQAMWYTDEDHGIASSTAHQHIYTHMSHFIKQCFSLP

`CC[C@H](C)[C@H](NC(=O)[C@H](Cc1ccccc1)NC(=O)[C@H](CCC(=O)O)NC(=O)[C@H](CCCCN)NC(=O)[C@H](C)NC(=O)[C@H](C)NC(=O)[C@H](CCC(N)=O)NC(=O)CNC(=O)[C@H](CCC(=O)O)NC(=O)[C@H](CC(C)C)NC(=O)[C@H](Cc1ccc(O)cc1)NC(=O)[C@H](CO)NC(=O)[C@H](CO)NC(=O)[C@@H](NC(=O)[C@H](CC(=O)O)NC(=O)[C@H](CO)NC(=O)[C@@H](NC(=O)[C@H](Cc1ccccc1)NC(=O)[C@@H](NC(=O)CNC(=O)[C@H](CCC(=O)O)NC(=O)c1ccc(CNC(=O)[C@@H](N)Cc2c[nH]cn2)o1)[C@@H](C)O)[C@@H](C)O)C(C)C)C(=O)N[C@@H](C)C(=O)N[C@@H](Cc1c[nH]c2ccccc12)C(=O)N[C@@H](CC(C)C)C(=O)N[C@H](C(=O)N[C@@H](CCCCN)C(=O)NCC(=O)N[C@@H](CCCNC(=N)N)C(=O)NCC(N)=O)C(C)C` [Seq ID No. 01] was tested. Which “Percentage degradation in hrs” value [1] did it give?
Its value is 25%.

What about the half-life at 20 μM ([1]; pH 8) of the same molecule?
The half-life at 20 μM was greater than 72 h.

And the optimum dose ([2]; OGTT dose response, intraperitoneally)?
The optimum dose was 25 nmol/kg.

And the “dose response, percent reduction in blood glucose (AUC0-60)” value ([2]; OGTT, 100, 25, 10, 5 and 1 nmol/kg intraperitoneally, FIG. 11)?
Its value is “no significant difference between 100 nmol and 25 nmol doses”.

And the “blood glucose level, progression of diabetes” value ([3]; 6-8 weeks old db/db mice, 42 days)?
Its value is “delayed the progression of diabetes as compared to control negative group”.

And the “blood glucose level, activity versus control negative” value ([3]; 10-12 weeks old db/db mice, 28 days)?
Its value is “better activity as compared to control negative group”.

And the half-life at 20 μM ([4]; buffer)?
The half-life at 20 μM was 29 h.

What about the metabolised at 54 h, 20 μM ([4]; isolated enzyme neprilysin) of the same molecule?
The metabolised at 54 h, 20 μM was 92.6%.
